This note sets out measurements from patent US9481648B2, “Kinase inhibitors” (Respivert Limited, priority 2013, dated 2016).

In assay [1] the test system is β-catenin in d-U937 cells. The assay is described as follows: Accumulation of β catenin in d-U937 cells (assay m). The class given is cell-based, human. In short, it runs like this: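 U937 cells were differentiated with PMA (100 ng/mL) for 48–72 hr, then treated with compound or vehicle for 18 hr. After formaldehyde fixation, β-catenin was detected with a primary antibody and an HRP secondary using TMB (OD450–655). Signal was normalised to crystal violet cell staining (OD595).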

The target of a further assay is p38 MAPKα (MAPK14) (Homo sapiens (Human), UniProt Q16539). The assay is described as follows: p38 MAPKα enzyme inhibition (FRET, Z-LYTE; Method 2). The class given is biochemical.
Sequence of p38 MAPKα (MAPK14) (Q16539 whole entry): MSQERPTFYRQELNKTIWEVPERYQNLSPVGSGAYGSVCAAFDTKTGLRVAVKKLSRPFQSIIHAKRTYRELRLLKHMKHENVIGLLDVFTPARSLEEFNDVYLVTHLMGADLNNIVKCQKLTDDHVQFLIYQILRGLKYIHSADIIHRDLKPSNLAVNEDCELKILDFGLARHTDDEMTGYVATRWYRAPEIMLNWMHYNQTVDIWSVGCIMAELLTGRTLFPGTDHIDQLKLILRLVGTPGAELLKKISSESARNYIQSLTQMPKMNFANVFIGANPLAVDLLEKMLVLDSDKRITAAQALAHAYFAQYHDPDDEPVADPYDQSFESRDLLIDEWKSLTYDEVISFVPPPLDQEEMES
Another assay concerns the target c-Src (Homo sapiens (Human), UniProt P12931). Briefly: c-Src enzyme inhibition (FRET, Z-LYTE). The class given is biochemical. In short, it runs like this:
(§1)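 Syk or c-Src enzyme (3000 or 2000 ng/mL solutions) was preincubated 2 h at RT with compound solutions at 1, 0.1, 0.01 or 0.001 µg/mL. Z-LYTE FRET peptide (8 µM solution) and ATP (800 µM solution for c-Src, 60 µM for Syk) were then added for 1 h, followed by protease development for 1 h. Phosphorylation was read as the coumarin/fluorescein emission ratio.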

For another assay, the target named is GSK 3α (Homo sapiens (Human), UniProt P49840). Briefly: GSK 3α enzyme inhibition (FRET, Z-LYTE; Method 2). As to conditions: read-out: IC50 Values for Enzyme Inhibition GSK3α. The class given is biochemical. In short, it runs like this:
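Z-LYTE FRET assay: GSK3-α (500 ng/mL stock) preincubated 105 min at RT with compound at 10, 1, 0.1 or 0.01 μg/mL stock. FRET peptide (8 μM stock) and ATP (40 μM stock) were then added for 1 h, followed by protease development for 1 h. Phosphorylation was read as coumarin/fluorescein emission ratio.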

A further assay addresses Syk (Homo sapiens (Human), UniProt P43405). The assay is described as follows: Syk enzyme inhibition (FRET, Z-LYTE). The format is biochemical. In short, it runs like this:
as §1

SMILES strings stand for the structures.

Sequence of GSK 3α (P49840 whole entry): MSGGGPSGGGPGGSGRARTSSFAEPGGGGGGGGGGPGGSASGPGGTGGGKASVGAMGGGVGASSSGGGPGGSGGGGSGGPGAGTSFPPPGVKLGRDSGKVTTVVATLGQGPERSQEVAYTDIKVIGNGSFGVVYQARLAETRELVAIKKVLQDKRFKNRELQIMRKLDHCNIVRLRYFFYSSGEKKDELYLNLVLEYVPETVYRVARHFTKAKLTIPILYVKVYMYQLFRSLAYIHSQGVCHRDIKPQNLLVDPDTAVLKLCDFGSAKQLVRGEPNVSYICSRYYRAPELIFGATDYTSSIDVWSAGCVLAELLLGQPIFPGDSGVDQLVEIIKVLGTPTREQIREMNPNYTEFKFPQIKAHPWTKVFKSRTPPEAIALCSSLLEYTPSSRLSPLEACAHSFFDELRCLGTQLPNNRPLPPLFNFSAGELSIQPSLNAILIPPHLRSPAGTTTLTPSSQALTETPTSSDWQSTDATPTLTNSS
Sequence of c-Src (P12931 whole entry, looked up): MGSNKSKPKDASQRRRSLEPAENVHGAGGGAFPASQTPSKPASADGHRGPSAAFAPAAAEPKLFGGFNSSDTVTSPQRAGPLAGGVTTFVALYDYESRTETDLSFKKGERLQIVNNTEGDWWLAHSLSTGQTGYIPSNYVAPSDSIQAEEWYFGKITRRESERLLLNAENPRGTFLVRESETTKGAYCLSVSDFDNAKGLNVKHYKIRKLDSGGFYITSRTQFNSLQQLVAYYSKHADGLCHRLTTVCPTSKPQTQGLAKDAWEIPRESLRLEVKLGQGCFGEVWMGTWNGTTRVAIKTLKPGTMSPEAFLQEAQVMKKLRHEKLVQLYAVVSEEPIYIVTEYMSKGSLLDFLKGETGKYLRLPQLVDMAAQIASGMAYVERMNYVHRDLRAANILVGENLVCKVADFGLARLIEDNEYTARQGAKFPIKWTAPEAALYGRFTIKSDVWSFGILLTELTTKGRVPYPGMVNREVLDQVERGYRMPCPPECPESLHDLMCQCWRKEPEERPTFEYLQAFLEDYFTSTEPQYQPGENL

`C#Cc1cc(Nc2cc(Oc3ccc(NC(=O)Nc4cc(C(C)(C)C)cc(C(N)=O)c4OC)c4ccccc34)ccn2)cc(C(=O)NCCOCCOCCOC)c1` [Example 53, 3-((4-((4-(3-(5-(tert-Butyl)-3-carbamoyl-2-methoxyphenyl)ureido)naphthalen-1-yl)oxy)pyridin-2-yl)amino)-5-ethynyl-N-(2-(2-(2-methoxyethoxy)ethoxy)ethyl)benzamide]: the “% β-catenin induction” value in assay [1] (test compound 1 μg/mL) was −1%; in assay [1] (test compound 5 μg/mL), 1%; in assay [1] (test compound 10 μg/mL), 2%. Moreover, the IC50 (in general, the concentration that gives 50% inhibition) is 132 nM at p38 MAPKα (MAPK14), 46 nM at c-Src, 8.78 µM at GSK 3α and 1270 nM at Syk.

For `CCOc1c(NC(=O)Nc2ccc(Oc3ccnc(Nc4cc(OC)cc(OCCOCCOCCOC)c4)n3)c3ccccc23)cc(C(C)(C)C)cc1NS(C)(=O)=O` [Example 69], the “% β-catenin induction” value in assay [1] (test compound 1 μg/mL) was 10%; in assay [1] (test compound 5 μg/mL), 17%; in assay [1] (test compound 10 μg/mL), 25%. Besides, the IC50 is 147 nM on p38 MAPKα (MAPK14), 13 nM against c-Src, 1.53 µM on GSK 3α and 121 nM against Syk.

Take `COCCOCCOCCOc1cc(Nc2nccc(Oc3ccc(NC(=O)Nc4cc(C(C)(C)C)cc(NS(C)(=O)=O)c4OC)c4ccccc34)n2)cc(OC(F)F)c1` [Example 17, N-(5-(tert-Butyl)-3-(3-(4-((2-((3-(difluoromethoxy)-5-(2-(2-(2-methoxyethoxy)ethoxy)-ethoxy)phenyl)amino)pyrimidin-4-yl)oxy)naphthalen-1-yl)ureido)-2-methoxyphenyl)-methanesulfonamide]: the “% β-catenin induction” value in assay [1] (test compound 1 μg/mL) is 5%; in assay [1] (test compound 5 μg/mL), 23%; in assay [1] (test compound 10 μg/mL), 23%. Also, the IC50 came to 179 nM at p38 MAPKα (MAPK14), 40 nM against c-Src, 5.46 µM at GSK 3α and 149 nM against Syk.

Turning to `COCCOCCOCCOc1cc(Nc2nccc(Oc3ccc(NC(=O)Nc4cc(C(C)(C)C)cc(NS(C)(=O)=O)c4OC)c(Cl)c3Cl)n2)cc(OC)c1` [Example 10, N-(5-(tert-Butyl)-3-(3-(2,3-dichloro-4-((2-((3-methoxy-5-(2-(2-(2-methoxyethoxy)ethoxy)-ethoxy)phenyl)amino)pyrimidin-4-yl)oxy)phenyl)ureido)-2-methoxyphenyl)-methanesulfonamide], the results for the “% β-catenin induction” value in assay [1] (test compound 1 μg/mL), in assay [1] (test compound 5 μg/mL) and in assay [1] (test compound 10 μg/mL) were 12%, 42% and 39%, respectively. Further, the IC50 is 551 nM against p38 MAPKα (MAPK14), 18 nM against c-Src, 1.31 µM on GSK 3α and 63 nM at Syk.

Turning to `COCCOCCOCCOc1cc(Nc2nccc(Oc3ccc(NC(=O)Nc4cc(C(C)(C)C)cc(NS(C)(=O)=O)c4OC)c4ccccc34)n2)cc(OC)c1Cl` [Example 58, N-(5-(tert-Butyl)-3-(3-(4-((2-((4-chloro-3-methoxy-5-(2-(2-(2-methoxyethoxy)ethoxy)ethoxy)-phenyl)amino)pyrimidin-4-yl)oxy)naphthalen-1-yl)ureido)-2-methoxyphenyl)-methanesulfonamide], the “% β-catenin induction” value in assay [1] (test compound 1 μg/mL) amounted to 5%; in assay [1] (test compound 5 μg/mL), 2%; in assay [1] (test compound 10 μg/mL) it was 10%. For the same compound, the IC50 against p38 MAPKα (MAPK14) is 181 nM; at c-Src, 48 nM; at GSK 3α, 4.34 µM; at Syk it was 461 nM.

In the case of `COCCOCCOCCOc1cc(Nc2cc(Oc3ccc(NC(=O)Nc4cc(C(C)(C)C)cc(C(=O)NC5COC5)c4OC)c4ccccc34)ccn2)cc(OC)c1` [Example 77, 5-(tert-Butyl)-2-methoxy-3-(3-(4-((2-((3-methoxy-5-(2-(2-(2-methoxyethoxy)ethoxy)ethoxy)-phenyl)amino)pyridin-4-yl)oxy)naphthalen-1-yl)ureido)-N-(oxetan-3-yl)benzamide], the “% β-catenin induction” value is given as −4% in assay [1] (test compound 1 μg/mL), −1% in assay [1] (test compound 5 μg/mL) and −1% in assay [1] (test compound 10 μg/mL). Moreover, the 50% inhibitory concentration (IC50) was found to be 216 nM at p38 MAPKα (MAPK14), 23 nM against c-Src, 3.54 µM at GSK 3α and 39 nM on Syk.

Consider `COCCOCCOCCOc1cc(Nc2nccc(Oc3ccc(NC(=O)Nc4cc(C(C)(C)C)cc(-c5nnco5)c4OC)c4ccccc34)n2)cc(OC)c1` [Example 59, 1-(5-(tert-Butyl)-2-methoxy-3-(1,3,4-oxadiazol-2-yl)phenyl)-3-(4-((2-((3-methoxy-5-(2-(2-(2-methoxyethoxy)ethoxy)ethoxy)phenyl)amino)pyrimidin-4-yl)oxy)naphthalen-1-yl)urea], for which the results for the “% β-catenin induction” value in assay [1] (test compound 1 μg/mL), in assay [1] (test compound 5 μg/mL) and in assay [1] (test compound 10 μg/mL) were 14%, 33% and 28%, respectively. The half-inhibitory concentration (IC50) against p38 MAPKα (MAPK14) was 132 nM; against c-Src, 28 nM; on GSK 3α, 0.978 µM; against Syk, 128 nM.

As to `COCCOCCOCCOCCOCCOCCOCCOc1cc(Nc2nccc(Oc3ccc(NC(=O)Nc4cc(C(C)(C)C)cc(NS(C)(=O)=O)c4OC)c4ccccc34)n2)cc(OC)c1` [Example 14, N-(3-(3-(4-((2-((3-(2,5,8,11,14,17,20-Heotaoxadocosan-22-yloxy)-5-methoxyphenyl)amino)-pyrimidin-4-yl)oxy)naphthalen-1-yl)ureido)-5-(tert-butyl)-2-methoxyphenyl)-methanesulfonamide], the figures for the “% β-catenin induction” value in assay [1] (test compound 1 μg/mL), in assay [1] (test compound 5 μg/mL) and in assay [1] (test compound 10 μg/mL) were 0%, 16% and 14%, respectively. Besides, the IC50 against p38 MAPKα (MAPK14) amounted to 49 nM; on c-Src, 11 nM; at GSK 3α, 1.01 µM; against Syk it was 106 nM.

Regarding `C#Cc1cc(Nc2cc(Oc3ccc(NC(=O)Nc4cc(C(C)(C)C)cc(NS(C)(=O)=O)c4OC)c4ccccc34)ccn2)cc(C(=O)N[C@H](C)COCCOCCOC)c1` [Example 68, (R)-3-((4-((4-(3-(5-(tert-Butyl)-2-methoxy-3-(methylsulfonamido)phenyl)ureido)-naphthalen-1-yl)oxy)pyridin-2-yl)amino)-5-ethynyl-N-(1-(2-(2-methoxyethoxy)ethoxy)-propan-2-yl)benzamide], the “% β-catenin induction” value in assay [1] (test compound 1 μg/mL) is given as 2%; in assay [1] (test compound 5 μg/mL) it was 2%; in assay [1] (test compound 10 μg/mL), −1%. In addition, the concentration for half-maximal inhibition (IC50) against p38 MAPKα (MAPK14) stood at 209 nM; at c-Src it was 70 nM; on GSK 3α, 11.7 µM; against Syk, 1170 nM.

Take `COc1cc(Nc2nccc(Oc3ccc(NC(=O)Nc4cc(C(C)(C)C)cc(NS(C)(=O)=O)c4OC)c4ccccc34)n2)cc(C(=O)NCCN2CCOCC2)c1` [Example 6, 3-((4-((4-(3-(5(tert-Butyl)-2-methoxy-3-(methylsulfonamido)phenyl)ureido)naphthaen-1-yl)oxy)pyrimidin-2-yl)amino)-5-methox-N-(2-morpholinoethyl)benzamide]: the figures for the “% β-catenin induction” value in assay [1] (test compound 1 μg/mL), in assay [1] (test compound 5 μg/mL) and in assay [1] (test compound 10 μg/mL) were 7%, 20% and 11%, respectively. For the same compound, the half-maximal inhibitory concentration (IC50) at p38 MAPKα (MAPK14) turned out to be 34 nM; against c-Src, 11 nM; at GSK 3α it was 0.541 µM; at Syk, 421 nM.

In the case of `C#Cc1cc(Nc2cc(Oc3ccc(NC(=O)Nc4cc(NS(C)(=O)=O)cc(C(C)(C)C)c4)c4ccccc34)ccn2)cc(C(=O)NCCN2CCOCC2)c1` [Example 65, 3-((4-((4-(3-(3-(tert-Butyl)-5-(methylsulfonamido)phenyl)ureido)naphthalen-1-yl)oxy)-pyridin-2-yl)amino)-5-ethynyl-N-(2-morpholinoethyl)benzamide], the entries for the “% β-catenin induction” value in assay [1] (test compound 1 μg/mL), in assay [1] (test compound 5 μg/mL) and in assay [1] (test compound 10 μg/mL) were 5%, 2% and 6%, respectively. The IC50 came out at 326 nM against p38 MAPKα (MAPK14), 85 nM against c-Src, 7.4 µM on GSK 3α and 1290 nM at Syk.

Take `COCCOCCOCCOc1cc(Nc2cc(Oc3ccc(NC(=O)Nc4cc(C(C)(C)C)cc(C(=O)NCCN(C)C)c4OC)c4ccccc34)ccn2)cc(OC)c1` [Example 76, 5-(tert-Butyl)-N-(2-(dimethylamino)ethyl)-2-methoxy-3-(3-(4-((2-((3-methoxy-5-(2-(2-(2-methoxyethoxy)ethoxy)ethoxy)phenyl)amino)pyridin-4-yl)oxy)naphthalen-1-yl)ureido)-benzamide]: the “% β-catenin induction” value in assay [1] (test compound 1 μg/mL) is on record as 2%; in assay [1] (test compound 5 μg/mL), −1%; in assay [1] (test compound 10 μg/mL), −13%. For the same compound, the IC50 amounted to 159 nM on p38 MAPKα (MAPK14), 31 nM at c-Src, 4.79 µM at GSK 3α and 35 nM against Syk.

Regarding `COc1cc(Nc2cc(Oc3ccc(NC(=O)Nc4cc(C(C)(C)C)cc(NS(C)(=O)=O)c4OC)c4ccccc34)ccn2)cc(OCCOCCOCCO)c1` [84(e), 1-[5-tert-Butyl-3-(methanesulfonamido)-2-methoxy-phenyl]-3-[4-[[2-[3-[2-[2-(2-hydroxyethoxy)ethoxy]ethoxy]-5-methoxy-anilino]-4-pyridyl]oxy]-1-naphthyl]urea], the “% β-catenin induction” value is recorded as −1% in assay [1] (test compound 1 μg/mL), 5% in assay [1] (test compound 5 μg/mL) and 7% in assay [1] (test compound 10 μg/mL). Further, the concentration for half-maximal inhibition (IC50) was found to be 77 nM against p38 MAPKα (MAPK14), 36 nM against c-Src, 4.47 µM at GSK 3α and 125 nM against Syk.
